For experiment [1], the target named is T1, 5-hydroxytryptamine receptor 1A (Rattus norvegicus, UniProt P19327).
T1 sequence (P19327 whole entry): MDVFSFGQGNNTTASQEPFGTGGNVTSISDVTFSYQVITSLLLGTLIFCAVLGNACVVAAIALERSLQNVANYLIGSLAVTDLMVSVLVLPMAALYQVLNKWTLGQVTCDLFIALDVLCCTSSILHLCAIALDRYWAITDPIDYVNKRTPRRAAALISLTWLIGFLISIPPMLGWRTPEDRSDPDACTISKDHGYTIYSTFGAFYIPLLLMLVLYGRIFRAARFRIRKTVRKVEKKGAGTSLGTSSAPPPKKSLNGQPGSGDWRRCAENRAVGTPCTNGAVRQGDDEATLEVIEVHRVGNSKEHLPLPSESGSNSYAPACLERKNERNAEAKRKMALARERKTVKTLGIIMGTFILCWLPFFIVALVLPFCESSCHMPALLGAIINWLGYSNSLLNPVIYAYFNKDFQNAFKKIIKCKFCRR

The target of experiment [2] is 5-hydroxytryptamine receptor 2A (Rattus norvegicus, UniProt P14842). Briefly: Displacement of [3H]-ketanserine from serotonin 5-HT2A receptor in rat brain cortex homogenates incubated for 30 mins by liquid scintillation counting. In general terms: In a radioligand displacement assay an active substance lowers the binding of a labelled ligand.
Chain of 5-hydroxytryptamine receptor 2A (P14842 whole entry): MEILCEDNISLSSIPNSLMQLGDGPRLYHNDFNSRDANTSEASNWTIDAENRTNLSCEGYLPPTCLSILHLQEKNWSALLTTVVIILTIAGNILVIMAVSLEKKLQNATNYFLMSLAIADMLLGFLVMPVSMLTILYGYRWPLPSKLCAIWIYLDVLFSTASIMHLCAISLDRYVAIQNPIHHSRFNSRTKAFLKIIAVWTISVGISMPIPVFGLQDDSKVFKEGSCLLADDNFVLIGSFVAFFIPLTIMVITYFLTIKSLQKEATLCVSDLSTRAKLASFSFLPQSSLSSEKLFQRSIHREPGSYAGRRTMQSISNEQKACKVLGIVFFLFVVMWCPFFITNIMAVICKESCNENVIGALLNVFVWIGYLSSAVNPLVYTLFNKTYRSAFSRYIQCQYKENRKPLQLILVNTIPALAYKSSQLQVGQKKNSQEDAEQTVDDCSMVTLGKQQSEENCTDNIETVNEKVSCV
A further experiment concerns the target D(2) dopamine receptor (Rattus norvegicus, UniProt P61169).

As a reminder, the Ki is the dissociation constant of the complex between target and ligand, obtained from inhibition or displacement. A higher Ki goes with a looser hold on the target.

Chain of D(2) dopamine receptor (P61169 whole entry): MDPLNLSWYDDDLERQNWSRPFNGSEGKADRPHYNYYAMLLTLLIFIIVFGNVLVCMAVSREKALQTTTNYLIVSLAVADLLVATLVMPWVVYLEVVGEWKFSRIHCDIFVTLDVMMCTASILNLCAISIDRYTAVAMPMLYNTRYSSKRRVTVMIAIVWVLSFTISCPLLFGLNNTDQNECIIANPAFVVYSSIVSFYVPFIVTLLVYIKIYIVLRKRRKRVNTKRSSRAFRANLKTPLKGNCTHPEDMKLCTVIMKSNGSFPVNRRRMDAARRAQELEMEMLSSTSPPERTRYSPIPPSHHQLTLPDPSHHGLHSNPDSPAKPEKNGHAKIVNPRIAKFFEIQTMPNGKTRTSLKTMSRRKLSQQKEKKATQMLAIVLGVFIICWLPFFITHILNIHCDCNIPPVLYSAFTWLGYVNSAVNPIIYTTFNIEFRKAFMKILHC

On to `O=C(CCN1CCN(c2cccc(Cl)c2Cl)CC1)c1cc2c3c(c1)CCC(=O)N3CCC2`, for which the Ki in experiment [1] turned out to be 0.269 µM; in experiment [2], 0.207 µM; at D(2) dopamine receptor, 1.22 µM.
For `O=C(CCN1CCN(c2ncccn2)CC1)c1cc2c3c(c1)CCC(=O)N3CCC2` the same measures were 1.97 µM, 0.557 µM and > 2 µM.
Taken in the same sequence, the figures for `O=C1CCc2cc(CCCN3CCC(c4noc5cc(F)ccc45)CC3)cc3c2N1CCC3` were 0.0586 µM, 0.0739 µM and 0.0442 µM.
For `O=C(CCCN1CCN(c2cccc(Cl)c2Cl)CC1)c1cc2c3c(c1)CCC(=O)N3CCC2` the same measures were 0.149 µM, 0.0798 µM and 0.283 µM.
With `O=C(CCN1CCC(c2noc3cc(F)ccc23)CC1)c1cc2c3c(c1)CCN3C(=O)CC2`, the results for the Ki (in experiment [1]; in experiment [2]; at D(2) dopamine receptor) were 0.0164 µM, 0.0174 µM and 0.0197 µM, respectively.
For `O=C1CCc2cc(CCCCN3CCN(c4nsc5ccccc45)CC3)cc3c2N1CCC3` the same measures were 0.098 µM, 0.0839 µM and 0.154 µM.
With `O=C(CCCN1CCC(c2noc3cc(F)ccc23)CC1)c1cc2c3c(c1F)CCC(=O)N3CC2`, the values for the Ki (in experiment [1]; in experiment [2]; on D(2) dopamine receptor) were 0.0253 µM, 0.0179 µM and 0.0192 µM, respectively.
`O=C(CCN1CCN(c2nsc3ccccc23)CC1)c1cc2c3c(c1)CCC(=O)N3CCC2`: the Ki in experiment [1] was found to be 0.129 µM; in experiment [2] it was 0.072 µM; at D(2) dopamine receptor, 0.182 µM.
In the case of `O=C(CCCN1CCN(c2cccc(Cl)c2Cl)CC1)c1cc2c3c(c1)CCN3C(=O)CC2`, the values for the Ki (in experiment [1]; in experiment [2]; at D(2) dopamine receptor) were 0.0539 µM, 0.0378 µM and 0.104 µM, respectively.
Taken in the same sequence, the figures for `CC1CC(=O)N2CCCc3cc(CCCCN4CCC(c5noc6cc(F)ccc56)CC4)cc1c32` (centres undefined) were 0.0829 µM, 0.0834 µM and 0.0858 µM.
Taken in the same sequence, the figures for `CC1CC(=O)N2CCCc3cc(C(=O)CCCN4CCC(c5noc6cc(F)ccc56)CC4)cc1c32` (centres undefined) were 0.0423 µM, 0.0322 µM and 0.0621 µM.
Taken in the same sequence, the figures for `O=C1CCc2cc(C(O)CCN3CCC(c4noc5cc(F)ccc45)CC3)cc3c2N1CCC3` (centres undefined) were 0.0196 µM, 0.0199 µM and 0.0284 µM.
Regarding `O=C(CCN1CCN(c2nsc3ccccc23)CC1)c1cc2c3c(c1)CCN3C(=O)CC2`, the results for the Ki (in experiment [1]; in experiment [2]; on D(2) dopamine receptor) were 0.0546 µM, 0.0684 µM and 0.0888 µM, respectively.
For `O=C(CCCN1CCC(c2noc3cc(F)ccc23)CC1)c1cc2c3c(c1F)CCN3C(=O)CC2` the same measures were 0.0191 µM, 0.0219 µM and 0.0183 µM.
For `O=C1CCc2cc(CCCN3CCC(c4noc5cc(F)ccc45)CC3)cc3c2N1CC3` the same measures were 0.0387 µM, 0.0293 µM and 0.0465 µM.
For `O=C1CCc2cc(C(O)CCCN3CCC(c4noc5cc(F)ccc45)CC3)cc3c2N1CCC3` (centres undefined) the same measures were 0.0791 µM, 0.0242 µM and 0.0297 µM.
Turning to `O=C(CCN1CCN(c2ccc(Cl)cc2)CC1)c1cc2c3c(c1)CCC(=O)N3CCC2`, the Ki in experiment [1] is 1.63 µM; in experiment [2] it was 0.72 µM; at D(2) dopamine receptor, > 2 µM.
With `O=C1CCc2cc(CCCCN3CCN(c4cccc(Cl)c4Cl)CC3)cc3c2N1CCC3`, the inhibition constant Ki in experiment [1] was 0.194 µM; in experiment [2] it was 0.0978 µM; on D(2) dopamine receptor it was 0.394 µM.
Taken in the same sequence, the figures for `Cc1cccc(N2CCN(CCCC(=O)c3cc4c5c(c3)CCC(=O)N5CCC4)CC2)c1C` were 0.169 µM, 0.0589 µM and 0.185 µM.
For `Cc1cccc(N2CCN(CCC(=O)c3cc4c5c(c3)CCC(=O)N5CCC4)CC2)c1C` the same measures were 0.196 µM, 0.207 µM and 1.85 µM.
Taken in the same sequence, the figures for `O=C(CN1CCC(c2noc3cc(F)ccc23)CC1)c1cc2c3c(c1)CCC(=O)N3CCC2` were > 2 µM, 0.765 µM and 0.9 µM.
Consider `O=C(CCN1CCC(c2nc3ccccc3s2)CC1)c1cc2c3c(c1)CCC(=O)N3CCC2`, for which the Ki in experiment [1] turned out to be 0.392 µM; in experiment [2], 0.173 µM; on D(2) dopamine receptor, 0.861 µM.
For `O=C(CCCN1CCN(c2nsc3ccccc23)CC1)c1cc2c3c(c1)CCN3C(=O)CC2`, the Ki in experiment [1] worked out at 0.0318 µM; in experiment [2], 0.0503 µM; at D(2) dopamine receptor, 0.0499 µM.
On to `O=C(CCCCCN1CCC(c2noc3cc(F)ccc23)CC1)c1cc2c3c(c1)CCN3C(=O)CC2`, for which the Ki was 0.168 µM in experiment [1], 0.0347 µM in experiment [2] and 0.0891 µM on D(2) dopamine receptor.
Taken in the same sequence, the figures for `O=C1CCc2cc(CCCN3CCN(c4cccc(Cl)c4Cl)CC3)cc3c2N1CCC3` were 0.196 µM, 0.186 µM and 0.582 µM.
`O=C(CCN1CCN(c2cccc(Cl)c2Cl)CC1)c1cc2c3c(c1)CCN3C(=O)CC2`: the Ki in experiment [1] was 0.0816 µM; in experiment [2], 0.0925 µM; at D(2) dopamine receptor, 0.188 µM.
For `O=C(CCN1CCN(c2ccccc2)CC1)c1cc2c3c(c1)CCC(=O)N3CCC2` the same measures were 1.86 µM, 0.752 µM and 1.76 µM.
Taken in the same sequence, the figures for `COc1ccccc1N1CCN(CCC(=O)c2cc3c4c(c2)CCC(=O)N4CCC3)CC1` were 0.965 µM, 0.178 µM and > 2 µM.
Taken in the same sequence, the figures for `O=C1CCc2cc(CCCCN3CCC(c4noc5cc(F)ccc45)CC3)cc3c2N1CCC3` were 0.0691 µM, 0.0593 µM and 0.0743 µM.
For `O=C1CCc2cc(C(O)CCN3CCC(c4noc5cc(F)ccc45)CC3)cc3c2N1CC3` (centres undefined), the results for the Ki (in experiment [1]; in experiment [2]; at D(2) dopamine receptor) were 0.0293 µM, 0.0596 µM and 0.0196 µM, respectively.
Taken in the same sequence, the figures for `Cc1cccc(N2CCN(CCC(=O)c3cc4c5c(c3)CCN5C(=O)CC4)CC2)c1C` were 0.0846 µM, 0.175 µM and 0.189 µM.
For `N#Cc1ccc(N2CCN(CCC(=O)c3cc4c5c(c3)CCN5C(=O)CC4)CC2)c(F)c1` the same measures were 0.474 µM, 0.388 µM and 0.574 µM.
Take `O=C(CCCN1CCN(c2nsc3ccccc23)CC1)c1cc2c3c(c1)CCC(=O)N3CCC2`: the Ki in experiment [1] was determined as 0.153 µM; in experiment [2], 0.0879 µM; on D(2) dopamine receptor it was 0.0914 µM.
Taken in the same sequence, the figures for `O=C(CCCN1CCC(c2noc3cc(F)ccc23)CC1)c1cc2c3c(c1)CCC(=O)N3CCC2` were 0.0329 µM, 0.0223 µM and 0.0182 µM.
Regarding `O=C(CCN1CCN(c2ccccn2)CC1)c1cc2c3c(c1)CCC(=O)N3CCC2`, the inhibitory constant (Ki) in experiment [1] came out at 1.66 µM; in experiment [2], 0.675 µM; at D(2) dopamine receptor, 1.66 µM.
For `O=C(CCN1CCC(c2noc3cc(F)ccc23)CC1)c1cc2c3c(c1)CCC(=O)N3CCC2`, the Ki in experiment [1] amounted to 0.0629 µM; in experiment [2] it was 0.0523 µM; on D(2) dopamine receptor, 0.0582 µM.
For `O=C(CCCCN1CCC(c2noc3cc(F)ccc23)CC1)c1cc2c3c(c1)CCC(=O)N3CCC2` the same measures were 0.0326 µM, 0.0191 µM and 0.0318 µM.
Taken in the same sequence, the figures for `O=C1CCc2cc(CCCCCN3CCC(c4noc5cc(F)ccc45)CC3)cc3c2N1CC3` were 0.054 µM, 0.0583 µM and 0.0432 µM.

The values are drawn from ChEMBL document CHEMBL4270672, “Synthesis and Biological Evaluation of Fused Tricyclic Heterocycle Piperazine (Piperidine) Derivatives As Potential Multireceptor Atypical Antipsychotics” (J Med Chem, 2018).
